Reference: patent US20080194585A1, “Fungicidal Pyrazine Derivatives” (priority 2005, published 2008)
Marks after values point to notes of the source that are not given here.

Experiments:
Plasmopara viticola = test: Test D: grape downy mildew, spray after inoculation of grape seedlings; assay type: in vivo; conditions: 200 ppm; for pest or weed control at 200 ppm: Plasmopara viticola, 168 h, read-out: Test D disease control rating
Description: Upon removal, disease ratings were made. […] A dash (-) indicates no test results.

Botrytis cinerea = test: Test E: tomato botrytis, preventive spray on tomato seedlings; conditions: for pest or weed control at 200 ppm: Botrytis cinerea, in Solanum lycopersicum, topical, 72 h, read-out: Test E disease control rating
Sclerotinia sclerotiorum = test: Test C: cucumber white mold, preventive spray on cucumber seedlings; conditions: for Test C disease control rating: 200 ppm; for pest or weed control at 200 ppm: Sclerotinia sclerotiorum, in Cucumis sativus, 168 h, read-out: Test C disease control rating, 200 ppm
Septoria nodorum = test: Test H: wheat glum blotch, preventive spray on wheat seedlings; conditions: for pest or weed control at 200 ppm: Parastagonospora nodorum, in Triticum aestivum, topical, 168 h, read-out: Test H disease control rating, 200 ppm
Description: (the causal agent of wheat glum blotch) and incubated in a saturated atmosphere at 20° C. for 48 h, and then moved to a growth chamber at 22° C. for 5 days, after which disease ratings were made.

Septoria tritici = test: Test J: wheat leaf blotch, preventive spray on wheat seedlings; assay type: in vivo; conditions: for pest or weed control at 200 ppm: Zymoseptoria tritici, 528 h, read-out: Test J disease control rating
Description: A dash (-) indicates no test results.

Pythium aphanidermatum = test: Test A: bluegrass pythium blight, preventive spray on bluegrass seedlings; conditions: for Test A disease control rating: 200 ppm; for pest or weed control at 200 ppm: Pythium aphanidermatum, 120 h, read-out: Test A disease control rating
fusarium graminearium = test: Test I: wheat head scab, preventive spray on wheat seedlings; conditions: for Test I disease control rating: 200 ppm; for pest or weed control at 200 ppm: Fusarium, in Triticum aestivum, topical, 192 h, read-out: Test I disease control rating, 200 ppm
Description: (the causal agent of wheat head scab) and incubated in a saturated atmosphere at 20° C. for 72 h, and then moved to a growth chamber at 22° C. for 5 days, after which disease ratings were made.

Phytophthora infestans = test: whole plant or invertebrate; assay type: in vivo; conditions: for Test F disease control rating: 200 ppm; for pest or weed control at 200 ppm: Phytophthora infestans, in Solanum lycopersicum, topical, 144 h, read-out: Test F disease control rating
[1] = tested on: Colletotrichum orbiculare; test: Test B: cucumber Colletotrichum anthracnose, preventive spray on cucumber seedlings; conditions: for Test B disease control rating: 200 ppm; for pest or weed control at 200 ppm: Colletotrichum orbiculare, in Cucumis sativus, 144 h, read-out: Test B disease control rating, 200 ppm
Rhizoctonia oryzae = test: Test G: turf brown patch, preventive spray on creeping bent grass seedlings; conditions: for pest or weed control at 200 ppm: Waitea circinata, in Agrostis stolonifera, topical, 144 h, read-out: Test G disease control rating, 200 ppm
Description: (the causal agent of turf brown patch) and incubated in a saturated atmosphere at 27° C. for 24 h, and then moved to a growth chamber at 27° C. for 5 days, after which disease ratings were made.

[2] = tested on: Puccinia recondita f. sp. tritici; test: Test K: wheat leaf rust, preventive spray on wheat seedlings; conditions: for pest or weed control at 200 ppm: Puccinia recondita, in Triticum aestivum, 192 h, read-out: Test K disease control rating
[3] = tested on: Erysiphe graminis f. sp. tritici; test: Test L: wheat powdery mildew, preventive spray on wheat seedlings; conditions: for pest or weed control at 200 ppm: Blumeria graminis, in Triticum aestivum, 168 h, read-out: Test L disease control rating, 200 ppm
[4] = 100 = 100% disease control, 0 = no control
[5] = 200 ppm, 100 = 100% disease control, 0 = no control

SMILES	Test D disease control rating (Plasmopara viticola; [4]) [%]	Test E disease control rating (Botrytis cinerea; [5]) [%]	Test C disease control rating (Sclerotinia sclerotiorum; [4]) [%]	Test H disease control rating (Septoria nodorum; [5]) [%]	Test J disease control rating (Septoria tritici; [5]) [%]	Test A disease control rating (Pythium aphanidermatum; [4]) [%]	Test I disease control rating (fusarium graminearium; [4]) [%]	Test F disease control rating (Phytophthora infestans; [4]) [%]	Test B disease control rating [1, 4] [%]	Test G disease control rating (Rhizoctonia oryzae; [5]) [%]	Test K disease control rating [2, 5] [%]	Test L disease control rating [3, 5] [%]	pest or weed control at 200 ppm (Plasmopara viticola) [%]	pest or weed control at 200 ppm (Botrytis cinerea) [%]	pest or weed control at 200 ppm (Sclerotinia sclerotiorum) [%]	Test A disease control rating (Pythium aphanidermatum) [%]	Test F disease control rating (Phytophthora infestans) [%]	Test D disease control rating (Plasmopara viticola) [%]	Test C disease control rating (Sclerotinia sclerotiorum) [%]	Test I disease control rating (fusarium graminearium) [%]	other results
CCC(C)Cn1c(-c2ccc(F)cc2Cl)c(Cl)nc(-n2ccc(Br)n2)c1=O (racemic) [compound 259]	0	100	0	0	100	82	0	0	94	16	89	59									
CCC(C)Cn1c(-c2ccc(F)cc2Cl)c(Cl)nc(-n2cc(Br)c(C)n2)c1=O (racemic) [compound 260]	0	99	0	0	97	0	0	0	9	0	80	50									
CCC(C)Cn1c(-c2ccc(F)cc2Cl)c(Cl)nc(-n2ccc(C(OC)OC)n2)c1=O (racemic) [compound 261]	40	100	83	99	100	0	0	0	100	0	100	98									
CC(C)Cn1c(-c2c(F)cccc2F)c(Cl)nc(-c2ccccn2)c1=O [Compound 2, 5-Chloro-6-(2,6-difluorophenyl)-1-(2-methylpropyl)-3-(2-pyridinyl)-2(1H)-pyrazinone]													77	100	97						pest or weed control at 200 ppm (Septoria nodorum): 100%; pest or weed control at 200 ppm (Septoria tritici; 200 ppm): 99%; pest or weed control at 200 ppm (Pythium aphanidermatum): 38%; pest or weed control at 200 ppm (fusarium graminearium): 97%; pest or weed control at 200 ppm (Phytophthora infestans): 0%; pest or weed control at 200 ppm [1]: 100%; pest or weed control at 200 ppm (Rhizoctonia oryzae): 100%; pest or weed control at 200 ppm [2]: 100%; pest or weed control at 200 ppm [3]: 100%
CC(C)Cn1c(-c2ccc(F)cc2Cl)c(Cl)nc(-n2cccn2)c1=O [Compound 53, 5-Chloro-6-(2-chloro-4-fluorophenyl)-1-(2-methylpropyl)-3-(1H-pyrazol-1-yl)-2(1H)-pyrazinone]													0	100	99	0	0				pest or weed control at 200 ppm (Septoria nodorum): 100%; Test J disease control rating (Septoria tritici; 40 ppm (*)): 100* %; pest or weed control at 200 ppm (fusarium graminearium): 90%; pest or weed control at 200 ppm [1]: 100%; pest or weed control at 200 ppm (Rhizoctonia oryzae): 82%; pest or weed control at 200 ppm [2]: 100%; pest or weed control at 200 ppm [3]: 99%
CC(C)Cn1c(-c2c(F)cccc2F)c(Cl)nc(-c2cn(C)cn2)c1=O [Compound 85, 5-Chloro-6-(2,6-difluorophenyl)-1-(2-methylpropyl)-3-(1-methyl-1H-imidazol-4-yl)-2(1H)-pyrazinone]													0	100	95						pest or weed control at 200 ppm (Septoria nodorum): 97%; pest or weed control at 200 ppm (Septoria tritici; 200 ppm): 100%; pest or weed control at 200 ppm (Pythium aphanidermatum): 0%; pest or weed control at 200 ppm (fusarium graminearium): 55%; pest or weed control at 200 ppm (Phytophthora infestans): 0%; pest or weed control at 200 ppm [1]: 80%; pest or weed control at 200 ppm [2]: 99%; pest or weed control at 200 ppm [3]: 0%
CC(C)Cn1c(-c2c(F)ccc(F)c2F)c(Cl)nc(-n2cncn2)c1=O [compound 55]																0	0	0	85	78	Test E disease control rating (Botrytis cinerea; 200 ppm): 100%; Test H disease control rating (Septoria nodorum; 200 ppm): 95%; Test B disease control rating [1]: 0%; Test G disease control rating (Rhizoctonia oryzae; 200 ppm): 96%; Test K disease control rating ([2]; 200 ppm): 99%; Test L disease control rating ([3]; 200 ppm): 0%
CCC(C)Cn1c(-c2c(F)cccc2F)c(Cl)nc(-n2ccnc2C)c1=O (stereo not shown) [compound 69]																0	0	0	0	0	Test E disease control rating (Botrytis cinerea; 40 ppm (*)): 0* %; Test H disease control rating (Septoria nodorum; 40 ppm (*)): 0* %; Test J disease control rating (Septoria tritici; 40 ppm (*)): 62* %; Test G disease control rating (Rhizoctonia oryzae; 40 ppm (*)): 0* %; Test K disease control rating ([2]; 40 ppm (*)): 61* %; Test L disease control rating ([3]; 40 ppm (*)): 0* %
CC(C)Cn1c(-c2c(F)cccc2F)c(Cl)nc(-c2cncn2C)c1=O [compound 83]																0	47	0	64	0	Test E disease control rating (Botrytis cinerea; 200 ppm): 0%; Test H disease control rating (Septoria nodorum; 200 ppm): 0%; Test J disease control rating (Septoria tritici; 200 ppm): 18%; Test B disease control rating [1]: 9%; Test K disease control rating ([2]; 200 ppm): 79%; Test L disease control rating ([3]; 200 ppm): 0%
CC(C)Cn1c(-c2ccc3ccccc3c2)c(Cl)nc(-n2cccn2)c1=O [compound 90]																0	0	16	63	0	Test E disease control rating (Botrytis cinerea; 200 ppm): 0%; Test H disease control rating (Septoria nodorum; 200 ppm): 0%; Test J disease control rating (Septoria tritici; 200 ppm): 0%; Test B disease control rating [1]: 0%; Test K disease control rating ([2]; 200 ppm): 0%; Test L disease control rating ([3]; 200 ppm): 0%
